The values that follow come from ChEMBL document CHEMBL5096175, “An insight into the medicinal attributes of berberine derivatives: A review” (Bioorg Med Chem, 2021).

Assay [1] in a line: Antioxidant activity assessed as ABTS radical scavenging activity incubated for 10 mins by UV spectrophotometeric analysis. In kind it is functional.
The nature of assay [2]: Antioxidant activity assessed as DPPH radical scavenging activity measured after 25 mins by UV visible spectrophotometeric analysis. In kind it is functional.
A further assay has as its system Ca-Ski. Put plainly: Anticancer activity against human Ca-Ski cells assessed as cell growth inhibition incubated for 48 hrs by SRB assay. In kind it is functional, cell-based.
In assay [3] the test system is HeLa. Put plainly: Anticancer activity against human HeLa cells assessed as cell growth inhibition incubated for 48 hrs by SRB assay. Format: functional, cell-based.
The next assay relates to Streptococcus pyogenes. Put plainly: Antibacterial activity against Streptococcus pyogenes CICC 10356 assessed as inhibition of bacterial growth incubated for 24 hrs by broth microdilution method. In kind it is functional.
A further assay has as its system Shigella dysenteriae. Put plainly: Antibacterial activity against Shigella dysenteriae CICC 23829 assessed as inhibition of bacterial growth incubated for 24 hrs by broth microdilution method. In kind it is functional.
Assay [4] has as its system Staphylococcus aureus. Put plainly: Antibacterial activity against methicillin-resistant Staphylococcus aureus ATCC 700699 assessed as inhibition of bacterial growth incubated for 24 hrs by broth microdilution method. In kind it is functional.
The subject of a further assay is Clostridium perfringens. Nature of the assay: Antibacterial activity against Clostridium perfringens CICC 22949 assessed as inhibition of bacterial growth incubated for 24 hrs by broth microdilution method. Format: functional.
Another assay concerns Pseudomonas aeruginosa. Put plainly: Antibacterial activity against Pseudomonas aeruginosa CICC 10419 assessed as inhibition of bacterial growth incubated for 24 hrs by broth microdilution method. Format: functional.
For assay [5], the system named is Staphylococcus aureus. Put plainly: Antibacterial activity against Staphylococcus aureus CICC 23656 assessed as inhibition of bacterial growth incubated for 24 hrs by broth microdilution method. In kind it is functional.
Another assay deals with Escherichia coli. Nature of the assay: Antibacterial activity against Escherichia coli CICC 10389 assessed as inhibition of bacterial growth incubated for 24 hrs by broth microdilution method. Format: functional.
Another assay deals with Salmonella enteritidis. Nature of the assay: Antibacterial activity against Salmonella enteritidis CICC 24119 assessed as inhibition of bacterial growth incubated for 24 hrs by broth microdilution method. In kind it is functional, Salmonella enterica subsp. enterica serovar Enteritidis. Particulars: Salmonella enterica.
The next assay concerns HEK-293T. Nature of the assay: Antiinflammatory activity against HEK-293T cells assessed as inhibition of TNF-alpha induced NF-kappaB activation at 5 uM preincubated for 2 hrs followed by TNFalpha stimulation for 6 hrs by dual-luciferase reporter assay relative to control. Format: functional. The conditions noted are these: Homo sapiens, time 8 hrs.
Assay [6] deals with MCF7. Put plainly: Antiproliferative activity against human MCF7 cells incubated for 24 hrs by MTT assay. In kind it is functional, cell-based. The conditions noted are these: MCF7, 24 h.
For another assay, the system named is MKN-28. Nature of the assay: Antiproliferative activity against human MKN-28 cells assessed as inhibition of cell proliferation incubated for 48 hrs by MTT assay. In kind it is functional, cell-based. The conditions noted are these: MKN-28, 48 h.
Another assay has as its system SW-620. Put plainly: Antiproliferative activity against human SW620 cells assessed as inhibition of cell proliferation incubated for 48 hrs by MTT assay. Format: functional, cell-based. Particulars: SW-620, 48 h.
A further assay deals with HCT-8. Put plainly: Antiproliferative activity against human HCT-8 cells assessed as inhibition of cell proliferation incubated for 48 hrs by MTT assay. In kind it is functional, cell-based. Particulars: HCT-8, 48 h.
The subject of another assay is HCT-116. Put plainly: Antiproliferative activity against human HCT-116 cells assessed as inhibition of cell proliferation incubated for 48 hrs by MTT assay. Format: functional, cell-based. The conditions noted are these: HCT-116, 48 h.
Another assay relates to SGC-7901. Put plainly: Antiproliferative activity against human SGC-7901 cells assessed as inhibition of cell proliferation incubated for 48 hrs by MTT assay. In kind it is functional, cell-based. The conditions noted are these: SGC-7901, 48 h.
For another assay, the system named is ECa-109 cell line. Put plainly: Antiproliferative activity against human Eca-109 cells assessed as inhibition of cell proliferation incubated for 48 hrs by MTT assay. Format: functional, cell-based. Particulars: ECa-109, 48 h.
For a further assay, the system named is LS174T. Put plainly: Antiproliferative activity against human LS174T cells assessed as inhibition of cell proliferation incubated for 48 hrs by MTT assay. Format: functional, cell-based.
In another assay the test system is CCRF S-180. Nature of the assay: Antiproliferative activity against mouse CCRF S-180 cells assessed as inhibition of cell proliferation incubated for 48 hrs by MTT assay. Format: functional, cell-based. Particulars: CCRF S-180, 48 h.
For assay [7], the target named is Histone acetyltransferase p300 (Homo sapiens, UniProt Q09472). Put plainly: Inhibition of N-terminal His/GST-tagged recombinant human p300 HAT domain (965 to 1810 residues) expressed in Sf9 insect cells using isotope labelled 3H-Ac-CoA as substrate incubated for 60 mins by microbeta counter based analysis.
Chain of Histone acetyltransferase p300 (Q09472 whole entry, the tested form may be a part): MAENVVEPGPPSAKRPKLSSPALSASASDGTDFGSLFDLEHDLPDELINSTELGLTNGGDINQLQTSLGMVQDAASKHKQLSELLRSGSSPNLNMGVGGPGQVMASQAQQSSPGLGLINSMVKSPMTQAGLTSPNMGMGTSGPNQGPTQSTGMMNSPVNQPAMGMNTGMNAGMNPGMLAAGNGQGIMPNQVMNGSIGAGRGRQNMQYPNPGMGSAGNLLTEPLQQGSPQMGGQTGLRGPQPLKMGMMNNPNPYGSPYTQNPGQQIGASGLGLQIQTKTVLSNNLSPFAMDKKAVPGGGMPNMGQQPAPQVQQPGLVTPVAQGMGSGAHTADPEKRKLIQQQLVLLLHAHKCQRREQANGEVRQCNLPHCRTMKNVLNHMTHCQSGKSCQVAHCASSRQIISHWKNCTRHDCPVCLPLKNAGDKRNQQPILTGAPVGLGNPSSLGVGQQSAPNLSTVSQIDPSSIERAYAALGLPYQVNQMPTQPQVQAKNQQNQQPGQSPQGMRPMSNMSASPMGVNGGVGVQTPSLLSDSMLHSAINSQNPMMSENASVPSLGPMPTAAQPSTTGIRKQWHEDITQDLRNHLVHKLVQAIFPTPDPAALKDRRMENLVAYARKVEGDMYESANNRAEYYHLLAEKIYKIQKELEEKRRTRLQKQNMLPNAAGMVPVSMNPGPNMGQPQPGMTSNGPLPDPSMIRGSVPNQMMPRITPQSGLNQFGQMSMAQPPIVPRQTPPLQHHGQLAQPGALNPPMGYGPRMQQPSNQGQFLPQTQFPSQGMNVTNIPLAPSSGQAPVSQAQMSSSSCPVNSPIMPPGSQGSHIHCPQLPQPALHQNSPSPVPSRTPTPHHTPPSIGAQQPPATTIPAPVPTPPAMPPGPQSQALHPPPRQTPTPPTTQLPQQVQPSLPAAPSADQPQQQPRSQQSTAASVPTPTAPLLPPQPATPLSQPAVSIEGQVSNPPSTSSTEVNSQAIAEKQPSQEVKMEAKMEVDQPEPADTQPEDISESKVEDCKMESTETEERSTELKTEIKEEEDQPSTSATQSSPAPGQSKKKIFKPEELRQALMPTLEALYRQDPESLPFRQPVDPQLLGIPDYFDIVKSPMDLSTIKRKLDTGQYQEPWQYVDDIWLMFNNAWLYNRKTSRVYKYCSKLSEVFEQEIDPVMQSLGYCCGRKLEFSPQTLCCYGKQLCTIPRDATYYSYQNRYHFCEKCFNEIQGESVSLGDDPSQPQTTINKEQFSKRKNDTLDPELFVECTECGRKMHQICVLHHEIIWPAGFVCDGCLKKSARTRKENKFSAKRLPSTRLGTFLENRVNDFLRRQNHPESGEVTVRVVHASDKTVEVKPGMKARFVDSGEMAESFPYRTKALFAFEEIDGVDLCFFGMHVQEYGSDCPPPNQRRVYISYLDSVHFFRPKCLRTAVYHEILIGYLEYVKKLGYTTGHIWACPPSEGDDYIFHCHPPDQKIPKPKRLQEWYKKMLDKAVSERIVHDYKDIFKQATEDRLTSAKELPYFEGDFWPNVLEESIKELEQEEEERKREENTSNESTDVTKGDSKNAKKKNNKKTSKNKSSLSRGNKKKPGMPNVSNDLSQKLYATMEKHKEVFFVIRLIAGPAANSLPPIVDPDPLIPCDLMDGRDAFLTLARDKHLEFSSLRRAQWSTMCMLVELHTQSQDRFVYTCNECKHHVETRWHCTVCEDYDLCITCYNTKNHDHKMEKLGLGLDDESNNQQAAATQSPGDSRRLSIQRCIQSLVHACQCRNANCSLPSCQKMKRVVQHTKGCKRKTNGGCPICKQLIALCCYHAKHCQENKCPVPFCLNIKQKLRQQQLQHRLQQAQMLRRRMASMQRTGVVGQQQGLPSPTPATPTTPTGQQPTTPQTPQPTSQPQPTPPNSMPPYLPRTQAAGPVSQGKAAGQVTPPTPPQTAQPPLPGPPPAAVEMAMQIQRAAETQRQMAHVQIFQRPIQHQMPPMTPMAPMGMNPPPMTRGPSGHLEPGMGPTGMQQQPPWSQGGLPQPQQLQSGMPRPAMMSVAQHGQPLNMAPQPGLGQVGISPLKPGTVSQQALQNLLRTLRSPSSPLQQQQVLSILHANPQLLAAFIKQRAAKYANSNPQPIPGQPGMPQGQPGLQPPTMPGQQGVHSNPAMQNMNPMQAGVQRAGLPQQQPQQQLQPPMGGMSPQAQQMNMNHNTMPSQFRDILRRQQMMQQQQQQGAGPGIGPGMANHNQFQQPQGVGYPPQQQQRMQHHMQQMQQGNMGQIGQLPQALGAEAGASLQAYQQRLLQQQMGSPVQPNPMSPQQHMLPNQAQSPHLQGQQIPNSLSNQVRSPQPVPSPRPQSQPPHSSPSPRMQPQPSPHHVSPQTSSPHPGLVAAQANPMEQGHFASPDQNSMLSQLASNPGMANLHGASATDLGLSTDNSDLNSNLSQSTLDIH
A further assay deals with Chitinase B (Serratia marcescens, UniProt P11797). Nature of the assay: Inhibition of Serratia marcescens chitinase B expressed in Escherichia coli BL21(DE3) cells using MU-(GlcNAc)2 as a substrate assessed as inhibition constant incubated for 25 mins by dixon plot analysis.
Chain of Chitinase B (P11797 whole entry): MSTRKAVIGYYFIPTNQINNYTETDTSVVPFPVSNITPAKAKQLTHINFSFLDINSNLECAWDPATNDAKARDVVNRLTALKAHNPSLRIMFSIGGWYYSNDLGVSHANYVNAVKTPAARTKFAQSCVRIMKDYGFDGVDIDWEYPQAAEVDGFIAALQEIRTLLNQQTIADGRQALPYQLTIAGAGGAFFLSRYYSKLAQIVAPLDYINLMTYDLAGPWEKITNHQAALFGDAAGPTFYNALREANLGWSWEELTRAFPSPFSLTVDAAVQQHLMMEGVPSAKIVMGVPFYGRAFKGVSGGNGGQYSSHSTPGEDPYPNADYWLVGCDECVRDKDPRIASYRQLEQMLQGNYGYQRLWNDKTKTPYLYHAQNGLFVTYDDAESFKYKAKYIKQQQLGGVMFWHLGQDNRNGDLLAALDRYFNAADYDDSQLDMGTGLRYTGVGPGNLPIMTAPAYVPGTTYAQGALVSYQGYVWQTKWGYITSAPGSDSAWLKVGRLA
In the next assay the test system is Vibrio cholerae. Put plainly: Antibacterial activity against Vibrio cholerae by serial dilution method. Format: functional.
In another assay the test system is Brucella abortus. Nature of the assay: Antibacterial activity against Brucella abortus by serial dilution method. In kind it is functional.
Assay [8] deals with MCF7. Put plainly: Antiproliferative activity against human MCF7 cells assessed as inhibition of cell growth incubated for 72 hrs by MTT assay. In kind it is functional, cell-based. Particulars: MCF7, 72 h.
Assay [9] is described as follows: Inhibition of hypoxia induced HIF-1 transcriptional activity in human T47D cells incubated for 1 hr followed by exposure to hypoxic condition for 20 hrs by renilla and HRE-luciferase based dual-luciferase reporter assay. In kind it is cell-based.
Assay [10] deals with HeLa. Put plainly: Cytotoxicity against human HeLa cells assessed as inhibition of cell growth by Sulforhodamine B colorimetric assay. Format: functional, cell-based.
Assay [11] can be described thus: Antioxidant activity assessed as ABTS radical cation scavenging activity incubated for 10 mins under dark condition. In kind it is functional.
A short description of assay [12]: Antioxidant activity assessed as DPPH radical scavenging potential measured for 30 mins optical density based analysis. In kind it is functional.

Regarding `COc1ccc2cc3[n+](cc2c1OCCCCCn1c(C)cc2ccccc21)CCc1cc2c(cc1-3)OCO2.[Cl-]`, the IC50 in assay [1] was 9.09 µM; in assay [2] it was 19.9 µM; in the assay with Ca-Ski, 6.32 µg/mL; in the assay with HeLa [3] it was 7.21 µg/mL.
Take `COc1ccc2cc3[n+](cc2c1OCCCCCn1ccc2ccccc21)CCc1cc2c(cc1-3)OCO2`: the IC50 in assay [1] is 9.64 µM; in assay [2], 17.1 µM.
For `COc1ccc2cc3[n+](cc2c1OCc1ccc(C(F)(F)F)cc1)CCc1cc2c(cc1-3)OCO2`, the MIC in the assay with Streptococcus pyogenes, in the assay on Shigella dysenteriae, in the assay on Staphylococcus aureus [4], in the assay on Clostridium perfringens, in the assay on Pseudomonas aeruginosa and with Staphylococcus aureus [5] was 0.82 µM each time. Further, the MIC in the assay with Escherichia coli and with Salmonella enteritidis was 0.82 µM each time.
As to `CCCC(CCC)C(=O)Oc1c(OC)ccc2cc3[n+](cc12)CCc1cc2c(cc1-3)OCO2`, in the assay on HEK-293T, the inhibition at 5 µM was more than 90%.
In the case of `CCCCCCCCCOc1c(OC)ccc2cc3[n+](cc12)CCc1cc2c(cc1-3)OCO2`, the 50% inhibitory concentration (IC50) in the assay with MCF7 [6] is 4.87 µM.
With `COc1ccc2cc3[n+](cc2c1OC)CCc1cc2c(cc1-3)OCO2` [BERBERINE CHLORIDE], the IC50 in the assay on MKN-28, with SW-620, in the assay on HCT-8, with HCT-116, in the assay with SGC-7901 and in the assay on ECa-109 cell line was 25 µM each time. Moreover, the IC50 with LS174T and in the assay on CCRF S-180 was 25 µM throughout.
`COc1cc2cc3[n+](cc2cc1OC)CCCc1cc2c(cc1-3)OCO2`: the IC50 in assay [7] was 1.8 µM.
As to `COCCCCC(=O)Oc1c(OC)ccc2cc3[n+](cc12)CCc1cc2c(cc1-3)OCO2`, at Chitinase B, the Ki amounted to 0.15 µM.
On to `COc1ccc2cc3[n+](cc2c1OC(=O)C1(C)CCCCC1)CCc1cc2c(cc1-3)OCO2`, for which the inhibition at 5 µM in the assay on HEK-293T was more than 90%.
As for `COc1cc(CC2C(=O)C(C)C(=O)C(C)C2=O)c2cc3[n+](cc2c1O)CCc1cc2c(cc1-3)OCO2.[Cl-]` (stereo not drawn), the MIC against Vibrio cholerae and against Brucella abortus was 64 µg/mL each time.
With `COc1cc(-c2ccc(-c3ccccc3)cc2)c2cc3[n+](cc2c1OC)CCc1cc2c(cc1-3)OCO2`, the IC50 was found to be 0.98 µM with MCF7 [8] and 0.74 µM in assay [9].
For `COc1cc(CN2CCN(c3cccc4ccccc34)CC2)c2cc3[n+](cc2c1O)CCc1cc2c(cc1-3)OCO2`, in the assay on HeLa [10], the half-maximal cytotoxic concentration (CC50) was determined as 478 µM and the IC50 turned out to be 8.31 µM.
As for `COc1cc(CNc2nc3ccccc3s2)c2cc3[n+](cc2c1O)CCc1cc2c(cc1-3)OCO2`, the figures for the IC50 in assay [11] and in [12] were 8.48 µM and 25.4 µM, respectively.
`COc1ccc2c(CC(=O)ON[C@@H](CSCc3ccccc3)C(=O)OCc3ccccc3)c3[n+](cc2c1OC)CCc1cc2c(cc1-3)OCO2`: the IC50 in the assay on MKN-28, in the assay with SW-620, with HCT-8, with HCT-116, with SGC-7901 and in the assay on ECa-109 cell line was 15 µM throughout. Also, the IC50 with LS174T and in the assay with CCRF S-180 was 15 µM each time.
